Key:
[1] = cited from earlier work
[2] = stabilization of THS into the bilayer phase at acidic pH (detergent/surfactant screening)
From the text: Stabilizers are defined as compounds which allow the formation and/or maintenance of the bilayer state of d-alpha-tocopherol acid succinate based liposomes in an acidic pH environment.

[3] = cited from earlier work; remark: listed apart in the source
[4] = freeze fracture electron microscopy / appearance of THS bilayers, effect of pH; format: physicochemical
Protocol: Characterizing the pH-dependent polymorphic nature of the THS is of importance in designing drug delivery systems comprising THS.
An aliquot (0.1-0.3 ul) of the 10% THS vesicle specimen was sandwiched between a pair of Balzers (Nashua, NH) copper support plates and rapidly plunged from 23° C. into liquid propane. Samples were fractured and replicated on a double replicating device in a Balzers freeze-fracture unit at a vacuum of 2×10^-6 mbar or better and at -115° C. Replicas were floated off in 3N HNO3, followed by washing in a graded series of Chlorox solutions. These were finally cleaned in distilled water and picked up on 300 Hex mesh copper grids (Polysciences, PA). Replicas were viewed on a Philips 300 electron microscope at a magnification of 22,000 times.

For CC[C@@H]1C(=O)OC[C@@H]1Cc1cncn1C [pilocarpine], the “chemical stability at high pH” value ([1]; high pH, base-catalyzed hydrolysis) is given as “unstable at high pH”, the “chemical stability at lower pH” value ([1]; lower pH (protonated)) is given as “more stable” and the “chemical stability in pilocarpine and THS mixtures” value ([1]; pH values around 7.0) is given as “chemically unstable”.
With sorbitan monolaurate the “stabilization of THS into the bilayer phase” value (“stabilization” below) [2] was “do not stabilize the preparations”.
In the case of Cc1c(C)c2c(c(C)c1OC(=O)CCC(=O)O)CC[C@@](C)(CCC[C@H](C)CCC[C@H](C)CCCC(C)C)O2 [THS, d-alpha-tocopherol acid succinate], the “pH range in which aqueous suspensions are in the bilayer phase” value ([3]; aqueous suspension) is given as 6.0-9.0 pH, the “phase formed on lowering the pH below about 6.0 or introducing divalent cations” value ([3]; pH below about 6.0 or Mg++ or Ca++) is given as “produces vesicle aggregation and fusion, and induces hexagonal phase (hexII) formation” and the “precipitation upon lowering the pH” value ([4]; lowered pH, no stabilizer) is given as “precipitates resembling hexII phase lipid are formed”. The “vesicle morphology by freeze fracture electron microscopy” value ([4]; pH 7.0) was “heterogenous population of multilamellar and unilamellar vesicles”.
For Cc1c(C)c2c(c(C)c1OC(=O)CCC(=O)O)CCC(C)(CCCC(C)CCCC(C)CCCC(C)C)O2 (centres unmarked) [t-THS, tris(hydroxymethyl)aminomethane)-tocopherol hemisuccinate], the “trapping efficiency of closed multilamellar vesicles” value ([3]; physiological pH) is listed as “high trapping efficiencies”.
With CCCCCCCCCCCCCCCCCC(=O)OCC(O)CO (centres unmarked) [glycerol monostearate] the “stabilization” value [2] was “do not stabilize the preparations”.
In the case of sorbitan monopalmitate, the “stabilization” value [2] is reported as “do not stabilize the preparations”.

— patent US5364631A, “Tocopherol-based pharmaceutical systems” (The Liposome Company, Inc., priority 1993, dated 1994)
